# Test results from ChEMBL document CHEMBL5532643, “Design and synthesis of etrasimod derivatives as potent antibacterial agents against Gram-positive bacteria” (Eur J Med Chem, 2024).
# Active and inactive are the calls of the source. The calls are words filed in the database; no cut-off is given here.
# Key:
# Enterococcus faecalis [1] = assay: Synergistic antibacterial activity against Enterococcus faecalis ATCC 29212 assessed as linezolid MIC incubated for 18 to 20 hrs by checkboard assay; assay type: functional; conditions: time 18-20 hrs
# A549 [2] = assay: Cytotoxicity against human A549 cells assessed as reduction in cell viability at 100 uM incubated for 24 hrs by resazurin staining based analysis relative to control; assay type: functional
# Cell membrane [3] = assay: Induction of cytoplasmic membrane depolarization in Staphylococcus aureus ATCC 25923 assessed as increase in fluorescence intensity at 4 times MIC measured for 30 mins by DiSC3(5) dye based fluorescence method; assay type: cell membranes
# Cell membrane [4] = assay: Induction of cell membrane permeability in Staphylococcus aureus ATCC 25923 assessed as increase in fluorescence intensity at 4 times MIC incubated for 30 mins by PI staining based analysis; assay type: cell membranes
# Staphylococcus aureus [5] = assay: Synergistic antibacterial activity against methicillin-resistant Staphylococcus aureus ATCC 43300 assessed as gentamicin MIC incubated for 18 to 20 hrs by checkboard assay; assay type: functional; conditions: time 18-20 hrs
# Staphylococcus aureus [6] = assay: Synergistic antibacterial activity against Staphylococcus aureus ATCC 25923 assessed as fractional inhibitory concentration index incubated for 18 to 20 hrs in presence of vancomycin by checkboard assay; assay type: functional; conditions: time 18-20 hrs
# [7] = Selectivity index, ratio of CC50 for cytotoxicity against human THP-1 cells assessed as reduction in cell viability to MIC for antibacterial activity against methicillin-resistant Enterococcus faecium assessed as reduction in bacterial growth; assay type: toxicity, cell-based; conditions: read-out: Selectivity Index
# Staphylococcus aureus [8] = assay: Antimicrobial activity against Staphylococcus aureus ATCC 25923 infected in Caenorhabditis elegans AU37 assessed as reduction in number of viable bacteria at 20 uM incubated for 18 hrs; assay type: functional, organism-based
# Staphylococcus aureus [9] = assay: Drug resistance, ratio of MIC for Staphylococcus aureus ATCC 25923 after 20 days exposure to MIC for Staphylococcus aureus ATCC 25923 during first exposure; assay type: functional; conditions: time 20 day
# Staphylococcus aureus [10] = assay: Bactericidal activity against Staphylococcus aureus ATCC 25923 assessed as log reduction in colony forming units at 0.5 to 8 times MIC measured after 24 hrs by time kill-assay; assay type: functional
# Staphylococcus aureus [11] = assay: Synergistic antibacterial activity against methicillin-resistant Staphylococcus aureus ATCC 43300 assessed as fractional inhibitory concentration index incubated for 18 to 20 hrs in presence of vancomycin by checkboard assay; assay type: functional; conditions: time 18-20 hrs
# Staphylococcus aureus [12] = assay: Synergistic antibacterial activity against methicillin-resistant Staphylococcus aureus ATCC 43300 assessed as linezolid MIC incubated for 18 to 20 hrs by checkboard assay; assay type: functional; conditions: time 18-20 hrs
# Enterococcus faecalis [13] = assay: Synergistic antibacterial activity against Enterococcus faecalis ATCC 29212 incubated for 18 to 20 hrs in presence of linezolid by checkboard assay; assay type: functional; conditions: time 18-20 hrs
# Enterococcus faecalis [14] = assay: Bactericidal activity against Enterococcus faecalis ATCC 29212 assessed as reduction in bacterial growth at 0.5 to 8 times MIC incubated for 24 hrs by time-kill assay; assay type: functional
# [15] = Selectivity index, ratio of CC50 for cytotoxicity against human THP-1 cells assessed as reduction in cell viability to MIC for antibacterial activity against methicillin-resistant Enterococcus faecalis assessed as reduction in bacterial growth; assay type: toxicity, cell-based; conditions: read-out: Selectivity Index
# [16] = Toxicity in Caenorhabditis elegans AU37 assessed as worms survival at 10 uM measured after 72 hrs
# Enterococcus faecalis [17] = assay: Synergistic antibacterial activity against Enterococcus faecalis ATCC 29212 assessed as fractional inhibitory concentration index incubated for 18 to 20 hrs in presence of linezolid by checkboard assay; assay type: functional; conditions: time 18-20 hrs
# Staphylococcus aureus [18] = assay: Bactericidal activity against Staphylococcus aureus ATCC 25923 at 4 times MIC measured after 6 hrs by time kill-assay; assay type: functional, organism-based
# Staphylococcus aureus [19] = assay: Synergistic antibacterial activity against methicillin-resistant Staphylococcus aureus ATCC 43300 incubated for 18 to 20 hrs in presence of vancomycin by checkboard assay; assay type: functional; conditions: time 18-20 hrs
# A549 [20] = assay: Cytotoxicity against human A549 cells assessed as reduction in cell viability incubated for 24 hrs by resazurin staining based analysis; assay type: functional
# Staphylococcus aureus [21] = assay: Antibiofilm activity against Staphylococcus aureus ATCC 25923 assessed as inhibition of biofilm biomass at 100 uM incubated for 18 to 20 hrs by crystal violet staining based assay; assay type: functional; conditions: time 18-20 hrs
# Staphylococcus aureus [22] = assay: Synergistic antibacterial activity against Staphylococcus aureus ATCC 25923 assessed as fractional inhibitory concentration index incubated for 18 to 20 hrs in presence of linezolid by checkboard assay; assay type: functional; conditions: time 18-20 hrs
# Enterococcus faecalis [23] = assay: Synergistic antibacterial activity against Enterococcus faecalis ATCC 29212 incubated for 18 to 20 hrs in presence of vancomycin by checkboard assay; assay type: functional; conditions: time 18-20 hrs
# Staphylococcus aureus [24] = assay: Antimicrobial activity against Staphylococcus aureus ATCC 25923 infected in Caenorhabditis elegans AU37 assessed as reduction in bacterial burden at 20 uM incubated for 18 hrs; assay type: functional; set-up: scale not given: the % may be the effect or the level left
# Enterococcus faecalis [25] = assay: Synergistic antibacterial activity against Enterococcus faecalis ATCC 29212 assessed as fractional inhibitory concentration index incubated for 18 to 20 hrs in presence of vancomycin by checkboard assay; assay type: functional; conditions: time 18-20 hrs
# Staphylococcus aureus [26] = assay: Bactericidal activity against Staphylococcus aureus ATCC 25923 assessed as log reduction in colony forming units at 4 to 8 times MIC measured after 1 to 2 hrs by time kill-assay; assay type: functional; conditions: time 1-2 hrs
# [27] = Selectivity index, ratio of CC50 for cytotoxicity against human THP-1 cells assessed as reduction in cell viability to MIC for antibacterial activity against methicillin-resistant Staphylococcus epidermidis assessed as reduction in bacterial growth; assay type: toxicity, cell-based; conditions: read-out: Selectivity Index
# Cell membrane [28] = assay: Induction of cell membrane damage in Staphylococcus aureus ATCC 25923 at 8 times MIC incubated for 2 hrs by scanning electron microscopic analysis; assay type: cell membranes
# Staphylococcus aureus [29] = assay: Synergistic antibacterial activity against Staphylococcus aureus ATCC 25923 assessed as linezolid MIC incubated for 18 to 20 hrs by checkboard assay; assay type: functional; conditions: time 18-20 hrs
# Enterococcus faecalis [30] = assay: Synergistic antibacterial activity against Enterococcus faecalis ATCC 29212 assessed as vancomycin MIC incubated for 18 to 20 hrs by checkboard assay; assay type: functional; conditions: time 18-20 hrs
# Staphylococcus aureus [31] = assay: Synergistic antibacterial activity against methicillin-resistant Staphylococcus aureus ATCC 43300 incubated for 18 to 20 hrs in presence of gentamicin by checkboard assay; assay type: functional; conditions: time 18-20 hrs
# Staphylococcus aureus [32] = assay: Synergistic antibacterial activity against methicillin-resistant Staphylococcus aureus ATCC 43300 assessed as fractional inhibitory concentration index incubated for 18 to 20 hrs in presence of linezolid by checkboard assay; assay type: functional; conditions: time 18-20 hrs
# Enterococcus faecalis [33] = assay: Synergistic antibacterial activity against Enterococcus faecalis ATCC 29212 incubated for 18 to 20 hrs in presence of gentamicin by checkboard assay; assay type: functional; conditions: time 18-20 hrs
# [34] = Selectivity index, ratio of CC50 for cytotoxicity against human THP-1 cells assessed as reduction in cell viability to MIC for antibacterial activity against Staphylococcus aureus assessed as reduction in bacterial growth; assay type: toxicity, cell-based; conditions: read-out: Selectivity Index
# Staphylococcus aureus [35] = assay: Synergistic antibacterial activity against methicillin-resistant Staphylococcus aureus ATCC 43300 assessed as fractional inhibitory concentration index incubated for 18 to 20 hrs in presence of gentamicin by checkboard assay; assay type: functional; conditions: time 18-20 hrs
# Staphylococcus aureus [36] = assay: Synergistic antibacterial activity against Staphylococcus aureus ATCC 25923 assessed as gentamicin MIC incubated for 18 to 20 hrs by checkboard assay; assay type: functional; conditions: time 18-20 hrs
# Enterococcus faecalis [37] = assay: Synergistic antibacterial activity against Enterococcus faecalis ATCC 29212 assessed as fractional inhibitory concentration index incubated for 18 to 20 hrs in presence of gentamicin by checkboard assay; assay type: functional; conditions: time 18-20 hrs
smiles,measurement,setting,value
O=C(O)c1cc2cc(OCc3ccc(C4CCCCC4)c(C(F)(F)F)c3)ccc2[nH]1,MIC,Enterococcus faecalis [1],10 µM
same,Activity,A549 [2],~20%
same,Activity,Cell membrane [3],inactive
same,Activity,Cell membrane [4],inactive
same,MIC,Staphylococcus aureus [5],32 µg/mL
same,fractional inhibitory concentration index (FICI),Staphylococcus aureus [6],0.75
same,selectivity ratio,[7],> 12
same,Activity,Staphylococcus aureus [8],Active
same,Ratio,Staphylococcus aureus [9],3
same,log(activity),Staphylococcus aureus [10],>5
same,fractional inhibitory concentration index (FICI),Staphylococcus aureus [11],2
same,MIC,Staphylococcus aureus [12],5 µM
same,MIC,Enterococcus faecalis [13],5 µM
same,MBC,Enterococcus faecalis [14],5 µM
same,selectivity ratio,[15],> 12
same,Activity,[16],Non-Toxic
same,fractional inhibitory concentration index (FICI),Enterococcus faecalis [17],2
same,Activity,Staphylococcus aureus [18],Active
same,MIC,Staphylococcus aureus [19],2.5 µM
same,CC50,A549 [20],> 100 µM
same,inhibition at 100 µM,Staphylococcus aureus [21],> 90%
same,fractional inhibitory concentration index (FICI),Staphylococcus aureus [22],1
same,MIC,Enterococcus faecalis [23],5 µM
same,Activity,Staphylococcus aureus [24],>85%
same,fractional inhibitory concentration index (FICI),Enterococcus faecalis [25],2
same,log(activity),Staphylococcus aureus [26],>3
same,selectivity ratio,[27],> 12
same,Activity,Cell membrane [28],inactive
same,MIC,Staphylococcus aureus [29],5 µM
same,MIC,Enterococcus faecalis [30],2.5 µM
same,MIC,Staphylococcus aureus [31],0.625 µM
same,fractional inhibitory concentration index (FICI),Staphylococcus aureus [32],1
same,MIC,Enterococcus faecalis [33],1.25 µM
same,selectivity ratio,[34],> 12
same,fractional inhibitory concentration index (FICI),Staphylococcus aureus [35],<=0.5
same,MIC,Staphylococcus aureus [36],0.5 µg/mL
same,fractional inhibitory concentration index (FICI),Enterococcus faecalis [37],0.375
